In publication PMC7127853 (Bioorganic & Medicinal Chemistry, 2011):
pEC50: −log10 of the molar value.

Columns and labels:
Reovirus-1 = test: Antiviral assay, Reovirus-1 in Vero cells; format: cell-based; settings: read-out: Antiviral activity: EC50 Reovirus-1 (Vero)
[1] = tested on: Madin Darby canine kidney cells (MDCK); test: Cytotoxicity, cell morphology; format: cell-based
[2] = tested on: human embryonic lung (HEL) fibroblasts; test: Cytotoxicity, cell morphology; format: cell-based; settings: HEL cells; minimum cytotoxic concentration altering cell morphology
[3] = tested on: human cytomegalovirus (HCMV) strain AD-169; test: Antiviral assay, HCMV AD-169 in HEL cells; format: cell-based; settings: compared with TDP/HDP (S)-HPMPC of ref [11]
[4] = tested on: African green monkey cells (Vero); test: Cytotoxicity, cell morphology; format: cell-based
HIV-1 (IIIB) = test: Anti-HIV-1 assay in CEM cells; format: cell-based, human immunodeficiency virus type 1; settings: compared with HDP–PMEA of ref [12]

Row | SMILES | pEC50 (Reovirus-1) | Cytotoxicity Cell morphology (MCC) MDCK [1] [μM] | Cytotoxicity Cell morphology (MCC) (HEL) [2] [μM] | other results
1 | NC(=O)c1ncn([C@@H]2O[C@H](CO)[C@@H](O)[C@H]2O)n1 [Ribavirin, reference compound] | ≤ 3.76 | >100 |  | 
2 | O=c1[nH]c(=O)n([C@H]2C[C@H](O)[C@@H](CO)O2)cc1/C=C/Br [Brivudin] |  |  | >150 | 
3 | Nc1ncnc2c1ncn2CCOCP(=O)(OCCCCCCCCCCO)OCCCCCCCCCCO [Compound 5, Bis(10-Hydroxydecyl) ester of 9-[2-(phosphonomethoxy)ethyl]adenine] | < 4.47 |  |  | 
4 | Nc1ccn(C[C@@H](CO)OCP(=O)(O)O)c(=O)n1.O.O [(S)-HPMPC, Cidofovir] |  |  | >317 | 
5 | Nc1ccn(C[C@@H](CO)OCP(=O)(O)OCCOCCOCCOCCOCCOCCO)c(=O)n1 [Compound 16, 14-Hydroxy-3,6,9,12-tetraoxaheptadecyl ester of (S)-1-[3-hydroxy-2-(phophonomethoxy)propyl]cytosine] |  |  |  | Drop of activity against CMV versus analogous simple alkoxyalkyl ester [3]: 400- to 1000 fold
6 | Nc1nc(O)c2ncn(COC(CO)CO)c2n1 [Ganciclovir] |  |  | >392 | 
7 | Nc1nc2c(ncn2COCCO)c(=O)[nH]1 [Acyclovir] |  |  | >222 | 
8 | Nc1ncnc2c1ncn2CCOCP(=O)(OCCOCCCCCCCCCCO)OCCOCCCCCCCCCCO [Compound 9, Bis{2-[(10-Hydroxydecyl)oxy]ethyl} ester of 9-[2-(phosphonomethoxy)ethyl]adenine] | < 4.53 | 29.7 | 148 | Cytotoxicity Cell morphology (MCC) Vero [4]: 148 μM
9 | CCOCCOCCOCCOCCOCCOCCOP(=O)(O)COCCn1cnc2c(N)ncnc21 [Compound 12, 3,6,9,12,15,18-Hexaoxaeicosyl ester of 9-[2-(phosphonomethoxy)ethyl]adenine] |  |  |  | Loss of anti-HIV activity compared to HDP–PMEA (HIV-1 (IIIB)): > 10^7 fold
10 | CCOC(=O)C1=C[C@@H](OC(CC)CC)[C@H](NC(C)=O)[C@@H](N)C1 [Oseltamivir] |  | >100 |  | 
